Experimental data from patent publication EP0316212B1 (priority 1987, dated 1989).

Key:
[1] = test system: HIV1; test: HIV1 infection of human lymphocytes preincubated with antibodies or NP derivatives, reverse transcriptase in supernatants; type: cell-based; conditions: for activité reverse transcriptase (surnageants de culture): dérivés NP, concentration not given
Procedure: (§1) La technique de culture et de titrage de la reverse-transcriptase du HIV est rappelée ci-après : Des lymphocytes humains, préalablement activés par la PHA (phytohémagglutinine) sont incubés dans un milieu nutritif (RPMI 1640 + sérum de veau foetal + antibiotiques + β-mercaptoéthanol 10⁻⁵M + 2»g/ml polybrene + sérum anti-interféron 1/2000 + IL2 10%). Après centrifugation, le culot cellulaire est mis en présence du HIV1 (10.000 cpm/10⁶ cellules) pendant 1 heure à 37°. Après lavage et centrifugation, les cellules sont resuspendues dans du milieu nutritif. Les surnageants de culture cellulaire sont suivis pendant plusieurs jours pour leur activité reverse transcriptase. Ils sont centrifugés 7 minutes à 95000 tours et le culot est lysé par du Triton® 0,1% (produit Touzart et Matignon). Un mélange réactionnel est ajouté (Tris, DTT (dithiothreitol), MgCl₂, KCl, PolyA, Oligo dT, ³HTTP, H₂O) et après 1 heure d'incubation à 37°C, la réaction est arrêtée avec du pyrophosphate de sodium et de l'acide nucléique de levure est ajouté pour aider la précipitation. De l'acide trichloracétique (TCA) est ajouté et la solution est laissée 15 minutes à 4°C. Après filtration sous vide avec des filtres millipores 0.45 »m et plusieurs lavages avec du TCA (0.5%), on procède au rinçage à l'éthanol, au sèchage en étuve 37° et enfin au comptage.
Les lymphocytes humains, préalablement activés par la PHA, sont incubés en présence des AcN, des anticorps anti-NP et des dérivés NP (DNP-glycine, DNP-lysine) pendant une nuit à 37°C. Le lendemain, le culot cellulaire est mis en présence du HIV1 pendant 1 heure à 37°C au bain-marie et les cellules sont resuspendues dans du milieu nutritif en présence des produits à tester. Les surnageants de culture sont testés pour l'activité reverse transcriptase pendant 3 semaines.

[2] = target: reverse transcriptase du HIV1 (Human immunodeficiency virus type 1 group M subtype B, UniProt P04585); test: Reverse transcriptase activity of HIV1 incubated with NP derivatives, tested immediately; type: biochemical; conditions: témoin virus 11924
Procedure: as §1
Le HIV1 est incubé 1 heure à 37° en présence d'AcN (D23, 621, N5-12), d'anticorps anti-NP (TNP11) ou en présence des dérivés NP (DNP-glycine et DNP-lysine). L'activité reverse transcriptase du HIV1 est testée immédiatement (cas des dérivés DNP-glycine et DNP-lysine). Alternativement, des lymphocytes humains sont infectés par le HIV1 préincubé avec les produits à tester, et la culture cellulaire est observée pendant 3 semaines par titrage de la reverse transcriptase. Durant cette période les cultures des lymphocytes humains ne contiennent pas d'anticorps ni d'antigène.

Compound: N[C@@H](CCCCNc1ccc([N+](=O)[O-])cc1[N+](=O)[O-])C(=O)O [DNP-lysine, DNP-Lysine]
- activité reverse transcriptase (surnageants de culture) ([1]; 3 jours après l'infection, témoin virus 562): 936
- activité reverse transcriptase (surnageants de culture) ([1]; 6 jours après l'infection, témoin virus 1274): 958
- activité reverse transcriptase (surnageants de culture) ([1]; 10 jours après l'infection, témoin virus 94474): 1102
- activité reverse transcriptase (surnageants de culture) ([1]; 13 jours après l'infection, témoin virus 63944): 1466
- activité reverse transcriptase (surnageants de culture) ([1]; 18 jours après l'infection, témoin virus 73368): 958
- activité reverse transcriptase (surnageants de culture) ([1]; 20 jours après l'infection, témoin virus 26840): 1268
- activité reverse transcriptase / infectivité virale par rapport au témoin virus (result in words) ([1]; lymphocytes incubés avec les produits): peuvent conduire à une inhibition totale de l'infectivité virale
- Activité reverse transcriptase ([2]; 10^-3M): 4652
- Activité reverse transcriptase ([2]; 10^-6M): 3932
- Activité reverse transcriptase ([2]; 10^-7M): 7240
- Activité reverse transcriptase ([2]; 10^-9M): 9262
